Laboratory results taken from US4935509A (priority 1989, dated 1990).
Where two headings read alike, the source gives them in different places.

Key:
P388 wild-type cells = experiment: MTT cell count (ID50), P388 wild-type leukemia cells in vitro; type: cell-based, murine; conditions: Mus musculus, read-out: ID50 P388/Wild
Experimental: (§1) In the various assays set forth below the colorimetric determination of the number of cells was carried out by the following procedure using MTT.
(§2) 3-(4,5-dimethylthiazol-2-yl)-2,5-dipenyl tetrazolium bromide (MTT) was prepared as a 5 mg/ml stock solution in phosphate buffered saline, filtered through a 0.22 μm filter and stored for up to two weeks at 4° C. while protected from light. For use in the assay it was diluted to 1 mg/ml in a pH 7.2 solution of phenol-red-free RPMI 1640 tissue culture medium supplemented with 1 mM sodium pyruvate and 50 μg/ml gentamycin. The assay was done in flat bottomed 96-well microtiter plates. Culture medium was removed from the wells by inverting and blotting the plate, fifty μl of MTT solution was added to the cells in each well, and each plate was incubated at 37° C. in an atmosphere of 5% CO2 in air. After incubation, each plate was centrifuged for 5 minutes at 8000×g and excess MTT removed by inverting and blotting. Fifty μl of 95% ethanol was added to each well and the plate was shaken (speed 6.5 for 15 minutes) to solubilize the formazan in each well. The optical density of each well was measured using an automatic plate reader with a test wavelength of 570 nm and a reference wavelength of 630 nm.
(§3) The differential in vitro activity of the above compounds as compared to vincristine and vinblastine with regard to P388 wild-type and P388 multiple-drug resistant leukemia was carried out by the following procedure.
(§4) Tissue culture-adapted lines of the P388 wild-type and P388 multiple-drug resistant cells (principally resistant to adriamycin) were obtained from the American Type Culture Collection, Rockville, MD. Experiments were conducted in 96-well microtiter plates with 300 cells from either line seeded in a volume of 200 μl of tissue culture medium (RPMI 1640 supplemented to 10% (v/v) with heat-inactivated fetal bovine serum (FBS) and to […] with 1-glutamine). Cells and varying log^10 dilutions of test compound were added to triplicate sets of wells on the same day and cultures were incubated for 5 days at 37° C. in a humidified atmosphere of 5% CO2 in air. The number of cells per well at the end of the experiment was determined colorimetrically by the reduction of MTT as described above.

COLO-320-DM = experiment: MTT cell count (ID50), human colon cancer cell line COLO-320-DM; type: cell-based; conditions: 144 h, read-out: ID50 COLO-320
Experimental: as §1, §2
(§5) The in vitro effects of the novel compounds as compared to vinblastine and vincristine on three human colon cancer cell lines and one non-transformedhuman cell line were determined by the following procedure.
(§6) The non-transformed human fibroblast cell line, WI-38 and two of the human colon cancer cell lines, COLO-320-DM and HT-29, were obtained from the American Type Culture Collection, Rockville, MD and the third human colon cancer cell line, OM-1, was supplied by E. I. du Pont de Nemours and Co., Inc., Glenholden, PA. Both OM-1 and COLO-320-DM cells were maintained by serial passage in RPMI 1640 tissue culture medium supplemented to 10% (v/v) with heat-inactivated FBS. HT-29 cells were similarly maintained in McCoys 5A tissue culture medium supplemented with 10% heat-inactivated FBS. COLO-320-DM cells were detached by gentle scraping while HT-29 and OM-1 cells were detached using 0.25% trypsin and 0.05% trypsin, 0.5 mM EDTA solutions respectively. All cultures were incubated at 37° C. in a humidified environment of 5% CO2 in air. Experiments were conducted in 96-well flat-bottomed plates. The initial cell seeds per well for each cell line were 4,000 for WI- 38; 2,000 for COLO-320-DM; 750 for HT-29; and 3,000 for OM-1, each in the appropriate tissue culture medium. Cells were plated 24 hours before test compound was added to allow cells to recover from the effects of physical scraping and trypsinization. Varying log10 dilutions of drug were added to triplicate sets of wells and cultures were incubated for 6 days at 37° in a humidified atmosphere of 5% CO2 in air. The number of cells per well at the end of the experiment was determined colorimetrically by the reduction of MTT as described above and the results for each compounds shown in Table II. For purposes of comparison, the concentration of each test compound required to reduce the final cell number to one-half of the number in drug-free control cultures (ID50) is shown in Table II.

[1] = In vivo effect against P388 leukemia in mice (TD50, ED50, T.I.); conditions: mouse, in vivo, ip
Description: (§7) The in vivo effect of the novel compounds of this invention against P388 leukemia as compared to vinblastine and vincristine, were compared by the following procedure.
(§8) P388 murine leukemia cells were obtained from Southern Research Institute, Birmingham, Ala., and were maintained by serial i.p. passage in C57BL/6 mice. Female (C57BL/6×DBA/2) F1 (BDF) mice of 6-8 weeks of age from Jackson Laboratories, Bar Harbor, Maine, received 1×10^6 P388 cells by i.p. inoculation on day 0. Compounds were dissolved in saline and administered i.p. to 10 tumor-bearing mice per dose level on days 0-4 and 7-9 using 5 to 10 log2 dilutions from a concentration known to be toxic. […] The therapeutic index (T.I.) for each compound was calculated by the formula: [formula]

P388 leukemia [2] = experiment: as above; conditions: for T.I. (therapeutic index): calculated from TD50 and ED50; for ED50: Mus musculus, P388, ip; for cured tumor-bearing mice at doses which were not toxic: P388 leukemia mice, non-toxic doses
Description: as §7, §8

OM-1 = experiment: MTT cell count (ID50), human colon cancer cell line OM-1; type: cell-based; conditions: 144 h, read-out: ID50 OM-1
Experimental: as §1, §2, §5, §6

P388 leukemia [3] = experiment: Increase in mean survival time of mice bearing P388 leukemia; type: in vivo; conditions: i.p.; for Increase in MST: vs vehicle
Experimental: The efficacy of the remaining compounds is clearly documented by the fact that each increased the mean survival time of tumor-bearing mice in a dose-dependentmanner. […] The percent increase in mean survival time (MST) which appears in Table IV was calculated by the following formula: [formula]

[4] = tested on: P388 multiple-drug resistant cells; experiment: cells; type: cell-based, murine; conditions: for Fold-resistance: ID50 resistant cell line divided by ID50 wildtype cell line, 7200 min; for IC50: Mus musculus, read-out: ID50 P3/88/resist.
Experimental: as §1, §2, §3, §4

WI-38 fibroblast = experiment: MTT cell count (ID50), non-transformed human fibroblast cell line WI-38; type: cell-based; set-up: unit not given here; conditions: 6 days incubation
Experimental: as §1, §2, §5, §6

HT-29 = experiment: MTT cell count (ID50), human colon cancer cell line HT-29; type: cell-based; conditions: HT-29, 144 h, read-out: ID50 HT-29
Experimental: as §1, §2, §5, §6

[5] = 120 h, P388 wild-type, 5 days incubation, MTT
[6] = 120 h, P388 multiple-drug-resistant (principally adriamycin), 5 days incubation, MTT

Structure (SMILES): CC[C@]12C=CCN3CC[C@@]4(c5cc([C@@]6(C(=O)OC)C[C@H]7CN(CCc8c6[nH]c6ccccc86)Cc6ccccc67)c(OC)cc5N(C)[C@H]4[C@@](O)(C(=O)OC)[C@@H]1OC(C)=O)[C@@H]32 [A, (9R,11S)-15-[1,2,4,9,10,11,12,17-octahydro-11-(methoxycarbonyl)-indolo(2',3':6,7)azonino(1,2,3-bc)isoquinolin-11-yl]vindoline]
- IC50 (P388 wild-type cells; P388, 120 h): 95 nM
- IC50 (COLO-320-DM): 400 nM
- LD50 [1]: 0.28 mg/kg
- T.I. (therapeutic index) (P388 leukemia [2]): < 1
- IC50 (OM-1): 400 nM
- Mean Survival Time (P388 leukemia [3]; 0.12 mg/kg (optimal dose), vehicle 9.6 days (A), 10.1 days (E)): 19.7 days
- Increase in MST (P388 leukemia [3]; 0.12 mg/kg (optimal dose)): 105%
- Fold-resistance [4]: 4
- IC50 ([4]; P388, 120 h): 400 nM
- ID50 WI-38 fibroblast (WI-38 fibroblast): 4 × 10^-7
- IC50 (HT-29): 30 nM

Structure (SMILES): CC[C@]12C=CCN3CC[C@@]4(c5cc([C@@]6(C(=O)OC)C[C@H]7CN(CCc8c6[nH]c6ccccc86)C[C@H]6CCCC[C@H]67)c(OC)cc5N(C)[C@H]4[C@@](O)(C(=O)OC)[C@@H]1OC(C)=O)[C@@H]32 [C, (4aS,8aR,9R,11S)-15-[1,2,4,4a,5,6,7,8,8a,9,10,11,12,17-tetradecahydro-11-(methoxycarbonyl)-indolo(2',3':6,7,)azonino(1,2,3-bc)isoquinolin-11-yl]vindoline]
- IC50 (P388 wild-type cells; P388, 120 h): 220 nM
- IC50 (COLO-320-DM): 400 nM
- LD50 [1]: 0.1 mg/kg
- ED50 (P388 leukemia [2]; read-out: ED50 (extrapolated values)): 0.1 mg/kg
- T.I. (therapeutic index) (P388 leukemia [2]): 1.0
- IC50 (OM-1): 400 nM
- Mean Survival Time (P388 leukemia [3]; 0.06 mg/kg (optimal dose), vehicle 10.1 days): 21.1 days
- Increase in MST (P388 leukemia [3]; 0.06 mg/kg (optimal dose)): 109%
- Fold-resistance [4]: 4
- IC50 ([4]; P388, 120 h): 850 nM
- ID50 WI-38 fibroblast (WI-38 fibroblast): 5 × 10^-7
- IC50 (HT-29): 300 nM

Structure (SMILES): CC[C@]12C=CCN3CC[C@@]4(c5cc([C@@]6(C(=O)OC)C[C@H]7CN(CCc8c6[nH]c6ccccc86)Cc6ccccc67)c(OC)cc5N(C=O)[C@H]4[C@@](O)(C(=O)OC)[C@@H]1OC(C)=O)[C@@H]32 [Compound B, (9R,11S)-15-[1,2,4,9,10,11,12,17-octahydro-11-(methoxycarbonyl)-indolo(2',3':6,7)azonino(1,2,3-bc)isoquinolin-11-yl]N-demethyl-N-formylvindoline]
- IC50 (P388 wild-type cells; P388, 120 h): 47 nM
- IC50 (COLO-320-DM): 300 nM
- LD50 [1]: 0.092 mg/kg
- ED50 (P388 leukemia [2]): 0.02 mg/kg
- cured tumor-bearing mice at doses which were not toxic (P388 leukemia [2]): 50%
- T.I. (therapeutic index) (P388 leukemia [2]): 4.6
- IC50 (OM-1): 60 nM
- Fold-resistance [4]: 11
- IC50 ([4]; P388, 120 h): 510 nM
- ID50 WI-38 fibroblast (WI-38 fibroblast): 1 × 10^-7
- IC50 (HT-29): 20 nM

Structure (SMILES): CC[C@]12C=CCN3CC[C@@]4(c5cc([C@@]6(C(=O)OC)C[C@H]7CN(CCc8c6[nH]c6ccccc86)C[C@@H]6CCCC[C@H]76)c(OC)cc5N(C=O)[C@H]4[C@@](O)(C(=O)OC)[C@@H]1OC(C)=O)[C@@H]32 [Compound F, (4aR,8aS,9R,11S)-15-[1,2,4,4a,5,6,7,8,8a,9,10,11,12,17-tetradecahydro-11-(methoxycarbonyl)-indolo(2',3':6,7,)azonino(1,2,3-bc)isoquinolin-11-yl]N-demethyl-N-formylvindoline]
- IC50 (P388 wild-type cells; P388, 120 h): 38 nM
- IC50 (COLO-320-DM): 400 nM
- LD50 [1]: 0.045 mg/kg
- ED50 (P388 leukemia [2]): 0.016 mg/kg
- cured tumor-bearing mice at doses which were not toxic (P388 leukemia [2]): 50%
- T.I. (therapeutic index) (P388 leukemia [2]): 2.8
- IC50 (OM-1): 20 nM
- Fold-resistance [4]: 12
- IC50 ([4]; P388, 120 h): 450 nM
- ID50 WI-38 fibroblast (WI-38 fibroblast): 1 × 10^-7
- IC50 (HT-29): 30 nM

Structure (SMILES): CC[C@]1(O)C[C@@H]2CN(CCc3c([nH]c4ccccc34)[C@@](C(=O)OC)(c3cc4c(cc3OC)N(C)[C@H]3[C@@](O)(C(=O)OC)[C@H](OC(C)=O)[C@]5(CC)C=CCN6CC[C@]43[C@@H]65)C2)C1 [Vinblastine, reference compound]
- IC50 (P388 wild-type cells; [5]): 19 nM
- IC50 (COLO-320-DM; 6 days incubation, MTT): 50 nM
- LD50 [1]: 0.79 mg/kg
- ED50 (P388 leukemia [2]): 0.41 mg/kg
- T.I. (therapeutic index) (P388 leukemia [2]): 1.9
- IC50 (OM-1; 6 days incubation, MTT): 50 nM
- Fold-resistance [4]: 16
- IC50 [4, 6]: 310 nM
- ID50 WI-38 fibroblast (WI-38 fibroblast): 5 × 10^-8
- IC50 (HT-29; 6 days incubation, MTT): 30 nM

Structure (SMILES): CC[C@]1(O)C[C@H]2CN(CCc3c([nH]c4ccccc34)[C@@](C(=O)OC)(c3cc4c(cc3OC)N(C=O)[C@H]3[C@@](O)(C(=O)OC)[C@H](OC(C)=O)[C@]5(CC)C=CCN6CC[C@]43[C@@H]65)C2)C1 [Vincristine, reference compound]
- IC50 (P388 wild-type cells; [5]): 7.2 nM
- IC50 (COLO-320-DM; 6 days incubation, MTT): 400 nM
- LD50 [1]: 1 mg/kg
- ED50 (P388 leukemia [2]): 0.17 mg/kg
- T.I. (therapeutic index) (P388 leukemia [2]): 5.9
- IC50 (OM-1; 6 days incubation, MTT): 50 nM
- Fold-resistance [4]: 57
- IC50 [4, 6]: 410 nM
- ID50 WI-38 fibroblast (WI-38 fibroblast): 7 × 10^-8
- IC50 (HT-29; 6 days incubation, MTT): 30 nM
